# Test system: Setaria viridis (L.) Beauv.
# Test: Herbicidal effect by upland foliage treatment
# Format: in vivo
# Parameters: scale not given here
# Settings: active ingredient 1000 g/ha, examined at 14th day from treatment
# Method: (§1) A sand was filled in a plastic pot of 80 cm^2. Seeds of Echinochloa crus-galli (L.) Beauv. var. crus-galli and Setaria viridis (L.) Beauv. were sowed. Breeding was made in a greenhouse for 2 weeks. Wettable powders produced in accordance with the Formulation 1 were diluted with water and sprayed on the whole foliage of plants from above the plants using a small sprayer in an amount of 1,000 liters per 1 hectare so that the amount of each active ingredient became 1,000 g per 1 hectare. Then, breeding was made in the greenhouse, and the herbicidal effect of each wettable powder was examined at the 14th day from the treatment in accordance with the standard shown in Table 21.
row,Compound,"herbicidal effect (index per standard of Table 21), Setaria viridis (L.) Beauv."
1,CC1(C)CC(S(=O)(=O)Cc2ccccn2)=NO1 [9-0001],4
2,Cc1ccsc1CS(=O)(=O)C1=NOC(C)(C)C1 [1-0001],4
3,COc1c(CS(=O)(=O)C2=NOC(C)(C)C2)c(C)cc[n+]1[O-] [7-0009],4
4,"5,5-dimethyl-[(4-methoxy-6-trifluoromethylpyrimidin-5-yl)-methylsulfonyl]-2-isoxazoline [8-0001]",4
5,Cc1nn(C)c(Cl)c1CS(=O)(=O)C1=NOC(C)(C)C1 [3-0037],4
6,CC1(C)CC(S(=O)(=O)Cc2sccc2Cl)=NO1 [1-0004],4
7,CCC(C)n1nc(Cl)c(CS(=O)(=O)C2=NOC(C)(C)C2)c1C(F)(F)F (stereo not drawn) [3-0082],4
8,CC1(C)CC(S(=O)(=O)Cc2csc(Cl)n2)=NO1 [9-0008],4

# Test system: Echinochloa crus-galli (L.) Beauv. var. crus-galli
# Test: Herbicidal effect by upland foliage treatment
# Format: in vivo
# Parameters: scale not given here
# Settings: active ingredient 1000 g/ha, examined at 14th day from treatment
# Method: as §1
row,Compound,"herbicidal effect (index per standard of Table 21), Echinochloa curs-galli (L.) Beauv. Var. crus-galli"
1,CC1(C)CC(S(=O)(=O)Cc2ccccn2)=NO1 [9-0001],4
2,Cc1ccsc1CS(=O)(=O)C1=NOC(C)(C)C1 [1-0001],5
3,COc1c(CS(=O)(=O)C2=NOC(C)(C)C2)c(C)cc[n+]1[O-] [7-0009],4
4,"5,5-dimethyl-[(4-methoxy-6-trifluoromethylpyrimidin-5-yl)-methylsulfonyl]-2-isoxazoline [8-0001]",5
5,Cc1nn(C)c(Cl)c1CS(=O)(=O)C1=NOC(C)(C)C1 [3-0037],5
6,CC1(C)CC(S(=O)(=O)Cc2sccc2Cl)=NO1 [1-0004],5
7,CCC(C)n1nc(Cl)c(CS(=O)(=O)C2=NOC(C)(C)C2)c1C(F)(F)F (stereo not drawn) [3-0082],4
8,CC1(C)CC(S(=O)(=O)Cc2csc(Cl)n2)=NO1 [9-0008],4

# Test system: Monochoria vaginalis (Murm. f.) Presl var. plantaginea (Roxb.) Solms-Laub.
# Test: Herbicidal effect by paddy field soil treatment
# Format: in vivo
# Parameters: scale not given here
# Settings: wettable powder, active ingredient 1000 g/ha, examined at the 21st day from the treatment
# Procedure, shortened: (§2)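 Seeds sown in puddled paddy soil under 3 cm of water; the next day wettable powders diluted in water were dropped onto the water surface at 1,000 g active ingredient/ha. Plants grown in a greenhouse, with herbicidal effect scored on day 21 against a rating standard.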
row,Compound,"Herbicidal effect index, Monochoria vaginalis (Burm. F.) Presl var. plantaginea (Roxb.) Solms-Laub."
1,CC1(C)CC(S(=O)(=O)Cc2ccccn2)=NO1 [9-0001],5
2,Cc1ccsc1CS(=O)(=O)C1=NOC(C)(C)C1 [1-0001],5
3,COc1c(CS(=O)(=O)C2=NOC(C)(C)C2)c(C)cc[n+]1[O-] [7-0009],5
4,"5,5-dimethyl-[(4-methoxy-6-trifluoromethylpyrimidin-5-yl)-methylsulfonyl]-2-isoxazoline [8-0001]",5
5,Cc1nn(C)c(Cl)c1CS(=O)(=O)C1=NOC(C)(C)C1 [3-0037],5
6,CC1(C)CC(S(=O)(=O)Cc2sccc2Cl)=NO1 [1-0004],5
7,CCC(C)n1nc(Cl)c(CS(=O)(=O)C2=NOC(C)(C)C2)c1C(F)(F)F (stereo not drawn) [3-0082],5
8,CC1(C)CC(S(=O)(=O)Cc2csc(Cl)n2)=NO1 [9-0008],5

# Test system: Echinochloa oryzicola Vasing
# Test: Herbicidal effect by paddy field soil treatment
# Format: in vivo
# Parameters: scale not given here
# Settings: wettable powder, active ingredient 1000 g/ha, examined at the 21st day from the treatment
# Procedure, shortened: as §2
row,Compound,"Herbicidal effect index, Echinochloa oryzicola Vasing"
1,CC1(C)CC(S(=O)(=O)Cc2ccccn2)=NO1 [9-0001],5
2,Cc1ccsc1CS(=O)(=O)C1=NOC(C)(C)C1 [1-0001],5
3,COc1c(CS(=O)(=O)C2=NOC(C)(C)C2)c(C)cc[n+]1[O-] [7-0009],5
4,"5,5-dimethyl-[(4-methoxy-6-trifluoromethylpyrimidin-5-yl)-methylsulfonyl]-2-isoxazoline [8-0001]",5
5,Cc1nn(C)c(Cl)c1CS(=O)(=O)C1=NOC(C)(C)C1 [3-0037],5
6,CC1(C)CC(S(=O)(=O)Cc2sccc2Cl)=NO1 [1-0004],5
7,CCC(C)n1nc(Cl)c(CS(=O)(=O)C2=NOC(C)(C)C2)c1C(F)(F)F (stereo not drawn) [3-0082],5
8,CC1(C)CC(S(=O)(=O)Cc2csc(Cl)n2)=NO1 [9-0008],5

# Test system: Setaria viridis (L.) Beauv.
# Test: Herbicidal effect by upland field soil treatment
# Format: in vivo
# Parameters: scale not given here
# Settings: active ingredient 1000 g/ha, examined at 21st day from treatment
# Text: (§3) An upland field soil was filled in a plastic pot of 80 cm^2. Seeds of Echinochloa crus-galli (L.) Beauv. var. crusgalli and Setaria viridis (L.) Beauv. were sowed, followed by covering with the same soil. […] Then, breeding was made in a greenhouse, and the herbicidal effect of each wettable powder was examined at the 21st day from the treatment in accordance with the standard shown in Table 21.
row,Compound,"herbicidal effect (index per standard of Table 21), Setaria viridis (L.) Beauv."
1,CC1(C)CC(S(=O)(=O)Cc2ccccn2)=NO1 [9-0001],5
2,Cc1ccsc1CS(=O)(=O)C1=NOC(C)(C)C1 [1-0001],5
3,COc1c(CS(=O)(=O)C2=NOC(C)(C)C2)c(C)cc[n+]1[O-] [7-0009],5
4,"5,5-dimethyl-[(4-methoxy-6-trifluoromethylpyrimidin-5-yl)-methylsulfonyl]-2-isoxazoline [8-0001]",5
5,Cc1nn(C)c(Cl)c1CS(=O)(=O)C1=NOC(C)(C)C1 [3-0037],5
6,CC1(C)CC(S(=O)(=O)Cc2sccc2Cl)=NO1 [1-0004],5
7,CCC(C)n1nc(Cl)c(CS(=O)(=O)C2=NOC(C)(C)C2)c1C(F)(F)F (stereo not drawn) [3-0082],5
8,CC1(C)CC(S(=O)(=O)Cc2csc(Cl)n2)=NO1 [9-0008],5

# Test system: Echinochloa crus-galli (L.) Beauv. var. crusgalli
# Test: Herbicidal effect by upland field soil treatment
# Format: in vivo
# Parameters: scale not given here
# Settings: active ingredient 1000 g/ha, examined at 21st day from treatment
# Text: as §3
row,Compound,"herbicidal effect (index per standard of Table 21), Echinochloa curs-galli (L.) Beauv. Var. crus-galli"
1,CC1(C)CC(S(=O)(=O)Cc2ccccn2)=NO1 [9-0001],5
2,Cc1ccsc1CS(=O)(=O)C1=NOC(C)(C)C1 [1-0001],5
3,COc1c(CS(=O)(=O)C2=NOC(C)(C)C2)c(C)cc[n+]1[O-] [7-0009],5
4,"5,5-dimethyl-[(4-methoxy-6-trifluoromethylpyrimidin-5-yl)-methylsulfonyl]-2-isoxazoline [8-0001]",5
5,Cc1nn(C)c(Cl)c1CS(=O)(=O)C1=NOC(C)(C)C1 [3-0037],5
6,CC1(C)CC(S(=O)(=O)Cc2sccc2Cl)=NO1 [1-0004],5
7,CCC(C)n1nc(Cl)c(CS(=O)(=O)C2=NOC(C)(C)C2)c1C(F)(F)F (stereo not drawn) [3-0082],5
8,CC1(C)CC(S(=O)(=O)Cc2csc(Cl)n2)=NO1 [9-0008],5

# — patent US7238689B2, “Isoxazoline derivative and herbicide comprising the same as active ingredient” (Ihara Chemical Industry Co., Ltd., priority 2001, dated 2007)
